Results published in patent US8541476B2, “Compounds for treatment of malignant tumors” (The Trustees of the University of Pennsylvania, priority 2007, dated 2013).

Experiments:
U251 cells = experiment: MIT assay, radiosensitizing effects of NS-160; assay type: cell-based, human; settings: U251, 8 hour pretreatment, 0.2 μM, IR dose of 4 Gy
Experimental: The dose-dependent radiosensitizing effects of NS-160 were investigated using an 8 hour pretreatment of 0.02 μM, 0.2 μM, and 2.0 μM NS-160 in U251 cells (FIG. 9). […] Therefore, NS-160 can act as a true radiosensitizer at low μM concentrations.

zebrafish (ZF) embryos = experiment: Zebrafish embryo development and survival after drug plus IR; assay type: in vivo, Danio rerio
Experimental: ZF were raised in accordance with previously established protocols (McAleer, et al., 2005, J. Radiat. Oncol. Biol. Phys. 61:10-3) at the University of Pennsylvania School of Medicine. Embryos were maintained at 30° C. after transplantation procedures. The age of embryos is indicated as the hours post-fertilization (hpf) and days post-fertilization (dpf) for all experimental data shown. […] Radiat. Oncol. Biol. Phys. 61:10-3) immediately after photography at 24 hpf. […]
The radiosensitizing effects of NS-123 on human cancer cells but not normal cells prompted us to examine the potential of NS-123 in vivo. Zebra fish (ZF) (Danio rerio) embryos provide an unique vertebrate model that is ideal for the screening of therapeutic agents because of their close genetic and physiological homology to upper level vertebrates such as mammals, their rapid embryonic development, optical clarity, and suitability for investigations regarding the effects of radiation and radiosensitizers (Geiger et al., 2006, Cancer Res. 66:8172-8181; McAleer et al., 2005, Int. J. Radiat. Oncol. Biol. Phys. 61:10-13). These features allow the efficient screening of novel drugs and observation of effects on specific organs without the need for euthanization and necroscopy. The ZF embryos were pretreated for 8 hours with 5 μM NS-123 prior to 6 Gy of radiation.

SMILES	radiosensitization (U251 cells)	embryonic development and viability after IR (zebrafish (ZF) embryos; 5 μM NS-123 (1 μM staurosporine) 8 hours before 6 Gy)	morphologic effects in developing ZF with IR (zebrafish (ZF) embryos; drug + IR)
N#Cc1ccc(Br)c([N+](=O)[O-])c1 [NS-160, 4-bromo-3-nitrobenzonitrile]	Radiosensitization was evident		
CN[C@@H]1C[C@H]2O[C@@](C)([C@@H]1OC)n1c3ccccc3c3c4c(c5c6ccccc6n2c5c31)C(=O)NC4 [Staurosporine]		greatly diminished the viability and development	morphologic changes consistent with increased toxicity
